Reference: EP4471049A1 (Zealand Pharma A/S, priority 2023, dated 2024)
Where two headings read alike, the source gives them in different places. *1 amine or outer side, *2 acyl side, *3 side chain or, on linkers, in order; H or OH if unused. Where a SMILES comes first, the peptide text is derived from it. Bridges are numbered along the chain shown (N, C = ends). [ ]: non-standard residue; d: D form. 2Nal = N[C@@H](Cc1ccc2ccccc2c1)C(=O)O; AEF = NCCOc1ccc(C[C@H](N)C(=O)O)cc1; X1 = O=C(Cc1ccc(CN[*:1])cc1)[*:2]; 3Pal = N[C@@H](Cc1cccnc1)C(=O)O; αMeL = CC(C)C[C@](C)(N)C(=O)O; Dab = NCC[C@H](N)C(=O)O; Sar = CNCC(=O)O

Key:
[1] = Peptide stability in simulated intestinal fluid (SIF); type: in vitro ADME; conditions: for remaining at 4 h, 10 µM / remaining at 1 h, 10 µM: pig, simulated intestinal fluid (SIF) with porcine pancreatin
In short: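 Peptides were incubated at 37 °C with gentle shaking in pH 6.8 potassium phosphate SIF containing porcine pancreatin (10 g/L). Supernatants were analysed by LC-HRMS. Percent remaining at each timepoint, including 4 h, was calculated relative to time zero from absolute peak areas.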

[2] = biological target: IL-23 mediated STAT3 signalling (Homo sapiens, UniProt Q5VWK5); test: Functional inhibition of IL-23 mediated STAT3 signalling (phospho-STAT3 Tyr705 MSD, DB cells); type: cell-based
IL-23 mediated STAT3 signalling, sequence (Q5VWK5 24-629 limits assumed): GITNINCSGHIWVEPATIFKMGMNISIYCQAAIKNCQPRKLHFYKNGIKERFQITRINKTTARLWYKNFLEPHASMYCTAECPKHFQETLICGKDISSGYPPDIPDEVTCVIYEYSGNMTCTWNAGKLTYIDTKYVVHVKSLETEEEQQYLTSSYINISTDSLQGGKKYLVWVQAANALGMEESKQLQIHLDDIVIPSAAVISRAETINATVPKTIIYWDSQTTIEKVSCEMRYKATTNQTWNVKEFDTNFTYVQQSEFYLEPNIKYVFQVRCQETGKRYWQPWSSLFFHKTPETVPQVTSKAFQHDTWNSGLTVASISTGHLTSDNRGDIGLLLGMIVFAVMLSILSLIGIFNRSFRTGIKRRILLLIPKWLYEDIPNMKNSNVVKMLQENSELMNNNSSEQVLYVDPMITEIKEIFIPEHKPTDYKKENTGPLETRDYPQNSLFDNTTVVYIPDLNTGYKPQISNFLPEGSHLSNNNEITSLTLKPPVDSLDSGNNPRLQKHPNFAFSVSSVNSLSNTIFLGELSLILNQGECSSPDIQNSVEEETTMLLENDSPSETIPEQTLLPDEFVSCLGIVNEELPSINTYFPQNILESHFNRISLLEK
Protocol: The ability of compounds to inhibit IL-23 mediated signalling was determined in the human-derived DB cell line (CRL-2289) (hereafter referred to as DB cells), which endogenously expresses the human IL-23R and human IL-12R β1 subunits. Upon binding of IL-23, the IL-23R forms a heterodimer signalling complex together with IL-12R β1, which through the JAK2/STAT3 pathway promotes phosphorylation of STAT3 to form phospho-STAT3. In the assay, the functional antagonism of IL-23 mediated phospho-STAT3 formation in DB cells by the compound is quantified using reagents capable of measuring the phosphorylation state of Tyr705 of STAT3 in the form of a phospho-STAT3 (Tyr705) MSD (Meso Scale Discovery) kit.
[…]. For compounds tested in this assay, the response was normalized relative to control values to calculate the IC50 and maximal inhibitory response from a concentration response curve of the compound in presence of a fixed concentration of human IL-23.
The assay procedure was as follows. DB cells were maintained in growth medium consisting of RPMI-1640 [Invitrogen 61870-010] supplemented with 10% V/V Foetal Bovine Serum (FBS) [(heat inactivated), Invitrogen 10270-106], and 1% V/V Penicillin-Streptomycin (Pen-Strep) Solution [Invitrogen 15140]. On the day of assay, cells were resuspended in Assay buffer consisting of RPMI-1640 [Invitrogen 61870-010] supplemented with 0.1 % w/V BSA [Sigma-Aldrich A9430] to a density of 7.5x10^6 cells/mL. Compounds to be tested for inhibition of hIL-23 mediated signalling were serially diluted in Assay buffer to 3X the final concentration. A solution of hIL-23 corresponding to 3X the EC80 of hIL-23 (1.7 nM) was also prepared in Assay buffer. To initiate the assay, 20 µL of DB cell suspension (corresponding to 150.000 cells/well) was added to the wells of a 96-well V-bottom Polypropylene plate [Corning 3363] followed by addition of 3X 20 µL of the diluted test compounds to separate wells. Following preincubation of the DB cells with inhibitor for 15 min in a cell incubator (37 °C, 5% CO2), 20 µL of the prepared 3X the EC80 of hIL-23 solution was added to each well and incubated for 90 min in a cell incubator (37 °C, 5% CO2). For some wells buffer only or IL-23 only corresponding to the EC80 was added to obtain readouts needed for normalization. To terminate the assay, the plate was spun at 1000 G for 5 min to pellet cells, the supernatant removed using an 8-channel manual pipette, and then added 50 µL/well Complete Lysis Buffer from the MSD STAT3 kit (Cat# K150SVD, Mesoscale) to the cell pellet. To completely lyse cells to release phospho-STAT3 for detection, the plate was shaken for 10 min at room temperature (500 rpm) sealed with aluminium foil and placed at -80 °C for a minimum of 15 min. Detection of the phospho-STAT3 level in the cell lysate from the individual wells was determined using the MSD STAT3 kit (Cat# K150SVD, Mesoscale) and read on a Meso QuickPlex SQ 120 plate reader (Mesoscale).
For data analysis raw data counts from the Meso QuickPlex SQ 120 plate reader were normalized relative to the response by the EC80 of hIL-23 alone (no compound added) and the buffer level. Compound potency (IC50) and maximal inhibitory response (% inhibition) were estimated by computer-aided curve fitting using a 4-parameter logistic (4PL) non-linear model. […]. Typically compounds with a low IC50 are desired. Typically compounds capable of completely inhibiting the IL23-induced response are desired. […]. Table 3-2: hIL-23 (pSTAT3) antagonist IC50 and % inhibition data

[3] = pH 6.8, Example 2 (Tables 2-1 to 2-4), intact peptide remaining after 4 h, read-out: SIF (% after 4 h)
[4] = 37 °C, pH 6.8, porcine pancreatin 10 g/L, 10 µM
[5] = Example 2 (Tables 2-1 to 2-4), read-out: IC50 (pSTAT3)
[6] = 4 h, 37 °C, pH 6.8, porcine pancreatin 10 g/L, 10 µM

remaining at 4 h, 10 µM [1, 3]	remaining at 1 h, 10 µM [1, 4]	IC50 [2, 5]	SIF (% remaining 4 h) [1, 6]	SIF (% after 4 h) ([1]; Example 2 (Tables 2-1 to 2-4), intact peptide remaining after 4 h)	remaining at 4 h, 10 µM ([1]; 4 h, 37 °C, pH 6.8, porcine pancreatin 10 g/L, 10 µM, read-out: SIF (% remaining 4 h))	IC50 ([2]; Table 3-2, EC80 of hIL-23, read-out: hIL-23 (pSTAT3) antagonist IC50)	Compound
41%	–	2.1 nM	41%	–	–	–	CC(C)C[C@]1(C)NC(=O)[C@H](Cc2ccc3ccccc3c2)NC(=O)[C@H](Cc2ccc(OCCN)cc2)NC(=O)[C@@H]2CCNC(=O)CC[C@H](NC(=O)[C@H](CO)NC(=O)Cc3ccc(cc3)CNC(=O)CC[C@@H](C(=O)N[C@@H](CCN)C(=O)N[C@H](Cc3cccnc3)C(N)=O)NC1=O)C(=O)N[C@@H](Cc1c[nH]c3ccccc13)C(=O)N[C@@H](CCC(N)=O)C(=O)N2 [Compound 5, [4-Aminomethyl-phenylacetyl](1c)*SE(2c)WQ[Dab](2c)[Y(2-aminoethoxy)][2-Nal][2-Me-Leu]E(1c)[Dab][{d}3-(3-Pyridyl)-Ala]-[NH2]]
105%	–	0.053 nM	–	–	–	–	CNC(=O)[C@H](Cc1cccnc1)NC(=O)[C@H](CCN)NC(=O)[C@@H]1CCC(=O)NCc2ccc(cc2)CC(=O)N[C@@H](CO)C(=O)N[C@H]2CCC(=O)NCC[C@H](NC(=O)[C@H](CCC(N)=O)NC(=O)[C@H](Cc3c[nH]c4ccccc34)NC2=O)C(=O)N[C@@H](Cc2ccc(OCCN)cc2)C(=O)N[C@@H](Cc2ccc3ccccc3c2)C(=O)N[C@@](C)(CC(C)C)C(=O)N1 [Compound 8, [4-Aminomethyl-phenylacetyl](1c)*SE(2c)WQ[Dab](2c)[Y(2-aminoethoxy)][2-Nal][2-Me-Leu]E(1c)[Dab][3-(3-Pyridyl)-Ala]-[NHMe]]
105%	–	0.025 nM	–	–	–	–	CC(C)C[C@]1(C)NC(=O)[C@H](Cc2ccc3ccccc3c2)NC(=O)[C@H](Cc2ccc(OCCN)cc2)NC(=O)[C@@H]2CCNC(=O)CC[C@H](NC(=O)[C@H](CO)NC(=O)Cc3ccc(cc3)CNC(=O)CC[C@@H](C(=O)N[C@@H](CCN)C(=O)N[C@@H](Cc3cccnc3)C(=O)N(C)CC(N)=O)NC1=O)C(=O)N[C@@H](Cc1c[nH]c3ccccc13)C(=O)N[C@@H](CCC(N)=O)C(=O)N2 [Compound 9, [4-Aminomethyl-phenylacetyl](1c)*SE(2c)WQ[Dab](2c)[Y(2-aminoethoxy)][2-Nal][2-Me-Leu]E(1c)[Dab][3-(3-Pyridyl)-Ala][Sar]-[NH2]] ([X1]SEWQ[Dab][AEF][2Nal][αMeL]E[Dab][3Pal][Sar]-NH2; lactam 3-6, N-10)
11%	34%	0.038 nM	11%	–	–	–	CC(C)C[C@]1(C)NC(=O)[C@H](Cc2ccc3ccccc3c2)NC(=O)[C@H](Cc2ccc(OCCN)cc2)NC(=O)[C@@H]2CCNC(=O)CC[C@H](NC(=O)[C@H](CO)NC(=O)Cc3ccc(cc3)CNC(=O)CC[C@@H](C(=O)N[C@@H](CCN)C(=O)N[C@@H](Cc3cccnc3)C(=O)N[C@H](Cc3c[nH]cn3)C(N)=O)NC1=O)C(=O)N[C@@H](Cc1c[nH]c3ccccc13)C(=O)N[C@@H](CCC(N)=O)C(=O)N2 [Compound 10, [4-Aminomethyl-phenylacetyl](1c)*SE(2c)WQ[Dab](2c)[Y(2-aminoethoxy)][2-Nal][2-Me-Leu]E(1c)[Dab][3-(3-Pyridyl)-Ala][{d}H]-[NH2]] ([X1]SEWQ[Dab][AEF][2Nal][αMeL]E[Dab][3Pal][dH]-NH2; lactam 3-6, N-10)
–	60%	–	–	–	2%	3.5 nM	CC(C)C[C@]1(C)NC(=O)[C@H](Cc2ccc3ccccc3c2)NC(=O)[C@H](Cc2ccc(OCCN)cc2)NC(=O)[C@@H]2CCNC(=O)CC[C@H](NC(=O)[C@H](CO)NC(=O)Cc3ccc(cc3)CNC(=O)CC[C@@H](C(=O)N[C@@H](CCN)C(=O)N[C@@H](Cc3c[nH]cn3)C(=O)N[C@@H](Cc3cccnc3)C(N)=O)NC1=O)C(=O)N[C@@H](Cc1c[nH]c3ccccc13)C(=O)N[C@@H](CCC(N)=O)C(=O)N2 [Compound 12, [4-Aminomethyl-phenylacetyl](1c)*SE(2c)WQ[Dab](2c)[Y(2-aminoethoxy)][2-Nal][2-Me-Leu]E(1c)[Dab]H[3-(3-Pyridyl)-Ala]-[NH2]] ([X1]SEWQ[Dab][AEF][2Nal][αMeL]E[Dab]H[3Pal]-NH2; lactam 3-6, N-10)

Second part, the molecule before the results:

Compound	remaining at 4 h, 10 µM [1, 3]	remaining at 1 h, 10 µM [1, 4]	IC50 [2, 5]	SIF (% remaining 4 h) [1, 6]	SIF (% after 4 h) ([1]; Example 2 (Tables 2-1 to 2-4), intact peptide remaining after 4 h)	remaining at 4 h, 10 µM ([1]; 4 h, 37 °C, pH 6.8, porcine pancreatin 10 g/L, 10 µM, read-out: SIF (% remaining 4 h))	IC50 ([2]; Table 3-2, EC80 of hIL-23, read-out: hIL-23 (pSTAT3) antagonist IC50)
CC(C)C[C@]1(C)NC(=O)[C@H](Cc2ccc3ccccc3c2)NC(=O)[C@H](Cc2ccc(OCCN)cc2)NC(=O)[C@@H]2CCNC(=O)CC[C@H](NC(=O)[C@H](CO)NC(=O)Cc3ccc(cc3)CNC(=O)CC[C@@H](C(=O)N[C@@H](CCN)C(=O)N[C@@](C)(Cc3cccnc3)C(N)=O)NC1=O)C(=O)N[C@@H](Cc1c[nH]c3ccccc13)C(=O)N[C@@H](CCC(N)=O)C(=O)N2 [Compound 3, [4-Aminomethyl-phenylacetyl](1c)*SE(2c)WQ[Dab](2c)[Y(2-aminoethoxy)][2-Nal][2-Me-Leu]E(1c)[Dab][2-Me-3-(3-Pyridyl)-Ala]-[NH2]]	109%	115%	1.7 nM	–	–	–	–
CC(C)C[C@]1(C)NC(=O)[C@H](Cc2ccc3ccccc3c2)NC(=O)[C@H](Cc2ccc(OCCN)cc2)NC(=O)[C@@H]2CCNC(=O)CC[C@H](NC(=O)[C@H](CO)NC(=O)Cc3ccc(cc3)CNC(=O)CC[C@@H](C(=O)N[C@@H](CCN)C(=O)N(C)[C@@H](Cc3cccnc3)C(N)=O)NC1=O)C(=O)N[C@@H](Cc1c[nH]c3ccccc13)C(=O)N[C@@H](CCC(N)=O)C(=O)N2 [Compound 4, [4-Aminomethyl-phenylacetyl](1c)*SE(2c)WQ[Dab](2c)[Y(2-aminoethoxy)][2-Nal][2-Me-Leu]E(1c)[Dab][N-Me-3-(3-Pyridyl)-Ala]-[NH2]]	89%	–	6.5 nM	–	–	–	–
CC(C)C[C@]1(C)NC(=O)[C@H](Cc2ccc3ccccc3c2)NC(=O)[C@H](Cc2ccc(OCCN)cc2)NC(=O)[C@@H]2CCNC(=O)CC[C@H](NC(=O)[C@H](CO)NC(=O)Cc3ccc(cc3)CNC(=O)CC[C@@H](C(=O)N[C@@H](CCN)C(=O)NCCCCc3cccnc3)NC1=O)C(=O)N[C@@H](Cc1c[nH]c3ccccc13)C(=O)N[C@@H](CCC(N)=O)C(=O)N2 [Compound 6, [4-Aminomethyl-phenylacetyl](1c)*SE(2c)WQ[Dab](2c)[Y(2-aminoethoxy)][2-Nal][2-Me-Leu]E(1c)[Dab]-[NH-(4-(pyridin-3-yl)butanyl)]]	73%	–	3.2 nM	73%	–	–	–
CC(C)C[C@]1(C)NC(=O)[C@H](Cc2ccc3ccccc3c2)NC(=O)[C@H](Cc2ccc(OCCN)cc2)NC(=O)[C@@H]2CCNC(=O)CC[C@H](NC(=O)[C@H](CO)NC(=O)Cc3ccc(cc3)CNC(=O)CC[C@@H](C(=O)N[C@@H](CCN)C(=O)NCCc3cccnc3)NC1=O)C(=O)N[C@@H](Cc1c[nH]c3ccccc13)C(=O)N[C@@H](CCC(N)=O)C(=O)N2 [Compound 7, [4-Aminomethyl-phenylacetyl](1c)*SE(2c)WQ[Dab](2c)[Y(2-aminoethoxy)][2-Nal][2-Me-Leu]E(1c)[Dab]-[NH-(2-(pyridin-3-yl)ethyl)]]	–	–	0.13 nM	130%	130%	–	–
